By IC50 is commonly meant the point on the concentration scale where inhibition reaches its midpoint. Usually AUC stands for concentration integrated over time.

SMILES strings stand for the structures.

In one data set the target is T1, EphA2 (UniProt Ref: P29317) (Homo sapiens, UniProt P29317).
T1 construct: purchased Reaction Biology
Kind of data set: EphA2 assay (Reaction Biology HotSpot radioactive kinase assay). It counts as biochemical. The following applies: ATP 10 μM; read-out: EphA2 potency IC50. The essentials:
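Radiometric HotSpot assay measuring ^33P incorporation from [^33P]-γ-ATP into poly[Glu:Tyr] (4:1) (0.2 mg/mL) with 10 μM ATP. IC50 from serial 1/3 dilutions starting at 10 or 3 μM.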

The target of a further data set is T2, EphA4 (UniProt Ref: P54764) (Homo sapiens, UniProt P54764).
T2 construct: purchased Reaction Biology
Put plainly: EphA4 assay (Reaction Biology HotSpot radioactive kinase assay). It counts as biochemical. The following applies: EphA4 potency; ATP 10 μM. The method, then: Inhibition of EphA4 (UniProt Ref: P54764) by a test compound is determined by a commercially available Reaction Biology proprietary nanoliter radioactive HotSpot^SM assay (Reaction Biology, One great valley parkway, Suite 2, Malvern Pa., 19355, USA). The principle of the assay consists of the measurement of incorporated ^33P into poly[Glu:Tyr] (4:1) (0.2 mg/mL) when the substrate is phosphorylated by the enzyme using [^33P]-γ-ATP and ATP (10 μM).
(§1) To determine the IC50, a serial dilution of compound is tested starting from 10 or 3 μM (highest dilution) with a 1/3 dilution.

A further data set concerns the target T3, EphB4 (UniProt Ref: Q541P7) (Homo sapiens, UniProt P54760).
T3 construct: purchased Reaction Biology
T3 sequence (P54760 16-987): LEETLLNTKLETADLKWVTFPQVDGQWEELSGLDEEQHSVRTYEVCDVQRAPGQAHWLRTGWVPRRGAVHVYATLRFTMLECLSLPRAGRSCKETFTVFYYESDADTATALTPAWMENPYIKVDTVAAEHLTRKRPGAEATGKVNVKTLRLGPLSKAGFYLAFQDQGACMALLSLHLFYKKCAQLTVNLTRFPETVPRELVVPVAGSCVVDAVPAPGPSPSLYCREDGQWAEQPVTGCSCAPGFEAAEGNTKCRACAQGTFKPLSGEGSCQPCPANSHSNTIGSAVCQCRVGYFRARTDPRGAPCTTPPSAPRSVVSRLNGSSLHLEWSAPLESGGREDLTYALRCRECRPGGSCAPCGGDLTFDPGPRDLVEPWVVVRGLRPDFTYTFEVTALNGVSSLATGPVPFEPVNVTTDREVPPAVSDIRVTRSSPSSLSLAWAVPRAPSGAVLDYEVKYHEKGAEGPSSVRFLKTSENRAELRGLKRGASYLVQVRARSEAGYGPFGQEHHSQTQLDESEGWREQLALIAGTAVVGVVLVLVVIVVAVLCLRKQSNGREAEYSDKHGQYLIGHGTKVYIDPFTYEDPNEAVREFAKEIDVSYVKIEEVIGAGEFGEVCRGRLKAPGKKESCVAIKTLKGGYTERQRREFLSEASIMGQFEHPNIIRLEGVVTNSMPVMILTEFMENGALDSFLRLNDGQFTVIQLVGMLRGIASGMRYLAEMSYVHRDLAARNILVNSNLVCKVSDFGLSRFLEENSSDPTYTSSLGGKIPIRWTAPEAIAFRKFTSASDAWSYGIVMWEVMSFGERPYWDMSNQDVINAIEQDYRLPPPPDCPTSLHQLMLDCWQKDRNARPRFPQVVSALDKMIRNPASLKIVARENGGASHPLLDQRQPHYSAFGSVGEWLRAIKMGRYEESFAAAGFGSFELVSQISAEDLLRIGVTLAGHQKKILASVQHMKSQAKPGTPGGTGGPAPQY
Put plainly: EphB4 assay (Reaction Biology HotSpot radioactive kinase assay). It counts as biochemical. Particulars: ATP 10 μM; read-out: EphB4 potency IC50. The method, then: Inhibition of EphB4 (UniProt Ref: Q541P7) by a test compound is determined by a commercially available Reaction Biology proprietary nanoliter radioactive HotSpot^SM assay (Reaction Biology, One great valley parkway, Suite 2, Malvern Pa., 19355, USA). The principle of the assay consists of the measurement of incorporated ^33P into poly[Glu:Tyr] (4:1) (0.2 mg/mL) when the substrate is phosphorylated by the enzyme using [^33P]-γ-ATP and ATP (10 μM).
as §1

A short description of data set [1]: Pharmacokinetics in mice (exposure, AUC). It counts as in vivo. The following applies: male, CD1, plasma; mouse, 30 mg/kg, po. As for the experimental part:
This study was performed with 42 naïve male CD1 mice (18-20 g, 4-5 weeks old). Mice are obtained from Janvier, Le Genest St Isle, France.
A controlled environment was maintained in the room with optimal conditions of approximately 15 air changes per hour, a temperature of 22±2 C, a relative humidity of 30-70% and a 12 hour light/12 hour dark cycle (nightlight during the night period).
Pelleted diet for rodents (UAR A04C-10) was used and was provided ad libitum. Before p.o. dosing, the animals are deprived of food for at least 12 hours before compound administration and 4 hours after administration. All animals had free access to tap water.
[…] The i.v. bolus administration is given with a dose volume of 5 mL/kg and the oral administration is given with a dose volume of 10 mL/kg. Actual dose volumes are based on the mean of 10 body weights.
The vehicle used to formulate compounds for oral administration is methylcellulose in water (0.5% in water)
From all animals approximately 500 μL blood samples are collected by intra-cardiac puncture under gaseous anesthesia and placed into tubes containing Li-heparin as anticoagulant. Blood samples are collected at various time points (i.v.: 0.05, 0.25, 0.5, 1, 3, 5 and 8 hours after dosing; p.o.: 0.25, 0.5, 1, 3, 5, 8 and 24 hours after dosing). Each mouse is sampled once and euthanized.
Blood is kept on ice. Within 1 hour after sampling, blood is centrifuged at 5,000 rpm for 10 min at 4° C. Immediately after centrifugation, the resulting plasma samples are collected into polypropylene tubes and are kept frozen at −20° C. pending bioanalysis.
Plasma samples are assayed by LC-MS/MS. Plasma proteins are precipitated with an excess of methanol containing the internal standard and the corresponding supernatant is injected on a C18 column. Analytes are eluted out the HPLC system by increasing the percentage of the organic mobile phase. An API4000 mass spectrometer (AB Sciex™) is used for the detection and quantification.
Pharmacokinetic parameters are calculated by non-compartmental analysis using WinNonlin® software (Pharsight, version 5.2).

T2 sequence (P54764 20-986): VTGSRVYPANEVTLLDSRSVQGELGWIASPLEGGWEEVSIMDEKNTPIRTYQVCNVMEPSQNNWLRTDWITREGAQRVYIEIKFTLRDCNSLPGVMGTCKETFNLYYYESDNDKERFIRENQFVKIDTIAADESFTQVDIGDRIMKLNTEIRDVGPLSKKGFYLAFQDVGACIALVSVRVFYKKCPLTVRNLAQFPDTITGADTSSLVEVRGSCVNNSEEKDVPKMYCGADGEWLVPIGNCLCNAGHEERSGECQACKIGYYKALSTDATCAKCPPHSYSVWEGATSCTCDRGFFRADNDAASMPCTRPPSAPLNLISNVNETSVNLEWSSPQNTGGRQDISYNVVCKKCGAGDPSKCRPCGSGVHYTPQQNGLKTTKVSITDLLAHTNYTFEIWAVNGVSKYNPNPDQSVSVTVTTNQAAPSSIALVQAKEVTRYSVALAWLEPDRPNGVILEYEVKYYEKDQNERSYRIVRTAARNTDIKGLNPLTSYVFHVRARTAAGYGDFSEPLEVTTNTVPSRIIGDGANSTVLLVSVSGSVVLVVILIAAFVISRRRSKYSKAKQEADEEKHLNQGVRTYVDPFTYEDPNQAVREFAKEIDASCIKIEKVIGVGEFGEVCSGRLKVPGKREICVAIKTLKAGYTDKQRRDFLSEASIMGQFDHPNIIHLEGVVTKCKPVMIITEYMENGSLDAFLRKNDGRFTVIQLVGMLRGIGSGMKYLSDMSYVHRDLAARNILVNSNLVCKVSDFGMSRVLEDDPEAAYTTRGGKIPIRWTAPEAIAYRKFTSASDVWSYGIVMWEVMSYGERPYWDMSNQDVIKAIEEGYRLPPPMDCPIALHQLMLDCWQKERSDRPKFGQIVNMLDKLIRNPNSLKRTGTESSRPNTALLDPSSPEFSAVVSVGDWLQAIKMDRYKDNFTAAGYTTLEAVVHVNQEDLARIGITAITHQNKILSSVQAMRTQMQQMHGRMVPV
T1 sequence (P29317 24-976): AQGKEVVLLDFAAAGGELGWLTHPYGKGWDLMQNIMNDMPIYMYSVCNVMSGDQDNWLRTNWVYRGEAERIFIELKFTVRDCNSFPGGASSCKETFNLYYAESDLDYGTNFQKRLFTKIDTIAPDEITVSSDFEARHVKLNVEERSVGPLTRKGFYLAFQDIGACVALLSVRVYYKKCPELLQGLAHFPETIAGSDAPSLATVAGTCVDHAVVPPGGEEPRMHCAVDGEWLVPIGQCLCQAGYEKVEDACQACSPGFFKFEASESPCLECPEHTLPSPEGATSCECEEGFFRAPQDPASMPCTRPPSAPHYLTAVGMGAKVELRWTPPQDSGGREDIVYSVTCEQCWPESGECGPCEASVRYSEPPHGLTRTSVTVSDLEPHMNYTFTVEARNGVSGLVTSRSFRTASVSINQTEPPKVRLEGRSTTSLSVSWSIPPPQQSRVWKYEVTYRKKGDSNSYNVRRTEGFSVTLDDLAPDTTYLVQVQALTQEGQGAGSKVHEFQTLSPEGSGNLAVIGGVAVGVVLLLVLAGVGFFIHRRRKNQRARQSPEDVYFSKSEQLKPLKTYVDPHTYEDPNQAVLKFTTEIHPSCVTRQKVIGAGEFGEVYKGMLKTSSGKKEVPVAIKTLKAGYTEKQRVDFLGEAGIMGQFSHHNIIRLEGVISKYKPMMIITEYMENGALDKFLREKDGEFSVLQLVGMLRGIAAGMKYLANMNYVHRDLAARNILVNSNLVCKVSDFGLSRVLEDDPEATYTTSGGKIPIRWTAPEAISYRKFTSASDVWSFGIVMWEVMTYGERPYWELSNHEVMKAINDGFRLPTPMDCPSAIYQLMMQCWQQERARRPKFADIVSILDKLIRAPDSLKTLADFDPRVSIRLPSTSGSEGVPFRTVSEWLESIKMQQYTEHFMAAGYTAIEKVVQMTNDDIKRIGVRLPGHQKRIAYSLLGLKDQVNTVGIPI

For `COc1cc(OC)cc(C(=O)Nc2ccc(C)c(-c3ccc4c([C@H](C)O)n[nH]c4n3)c2)c1` [Compound 47, N-{3-[3-((S)-1-Hydroxy-ethyl)-1H-pyrazolo[3,4-b]pyridin-6-yl]-4-methyl-phenyl}-3,5-dimethoxy-benzamide], the concentration for half-maximal inhibition (IC50) was 0.01 to 25 nM on EphA2, 50 to 100 nM on EphA4 and 0.01 to 25 nM at EphB4. The AUC in data set [1] came out at 39000 ng·h/mL.
